# Source: publication PMC9820082, “Synthesis of 9-Hydroxy-1H-Benzo[f]chromene Derivatives with Effective Cytotoxic Activity on MCF7/ADR, P-Glycoprotein Inhibitors, Cell Cycle Arrest and Apoptosis Effects” (International Journal of Molecular Sciences, 2022)
# Columns and labels:
# [1] = tested on: HeLa (cervical cancer cell line); assay: MTT colorimetric cytotoxicity assay, HeLa; assay type: cell-based, human; settings: Homo sapiens, HeLa, 24 h, 24 h incubation, mean ± standard error
# Procedure: (§1) Three human cancer cell lines, PC-3 (human prostate adenocarcinoma, metastatic), […], were used to test the anti-proliferative activity of β-enaminonitrile (4a–p) using the MTT colorimetric assay at concentrations ranging from 0–100 μM. The representative active cytotoxic substances 4a, 4c, 4d, 4e, 4g, 4i, 4k and 4o were also tested against two normal cell lines, human fetal lung (HFL-1) and human diploid fibroblasts (WI-38), as well as Adriamycin (ADR)-resistant human breast cancer cells (MCF-7/ADR). The reference cytotoxic agents, Vinblastine and Doxorubicin, were used in the tests.
# (§2) The cytotoxic activity was appraised using the 3-(4,5-dimethylthiazol-2-yl)-2,5-diphenyltetrazolium bromide (MTT) colorimetric assay for the antitumor cell lines, as reported previously, and the ELISA assay for MCF-7/ADR [69].
# MCF-7/ADR cells = assay: Cell cycle analysis by flow cytometry (PI staining); assay type: cell-based, human; settings: IC50 values, 24 h
# From the text: Cancer cells undergo unscheduled cell divisions by the down-regulation of the four cell cycle stages (G1, S, G2 and M); therefore, the development of anticancer agents targeting cell cycle arrest represents an important therapeutic intervention. P-gp breast cancer resistance proteins (BCRP) inhibit the action of anticancer drugs on cell cycle arrest by preventing intercellular drug accumulation. By using flow cytometry and the FACS Calibers, it was possible to examine how the potent-produced compounds (4a, 4c, 4e, 4g and 4i) affected the regulation of cell cycle progression in MCF-7/ADR cells (Becton Dickinson). […] The outcomes of the cell cycle progression give three different results showing compounds with cell cyclic arrest at the G1 phase (4d and 4e), while there were other compounds at the S phase (4a and 4c) and a final compound with cell cycle arrest at both of the G1/S phases (4g and 4i). […] According to the cell cycle analysis, the tested derivatives considerably stopped the MCF-7/ADR cancer cells in the G1/S phase.
# Figure 6 Effects of compounds 4a, 4c–4e, 4g and 4i on the cell cycle phases of MCF-7/ADR cells. […] Their DNA content was analyzed using fluorescence flow cytometry. […] The data are expressed as the mean ± SD of three independent experiments in triplicate. Significances are shown in comparison to control cells (* p < 0.001). TEXT PRINTED IN THE PICTURE: (a) DOX.: %DIP G1 63.03% (MCF7/ADR); %DIP G2/M 13.09% (MCF7/ADR); %DIP S 23.88% (MCF7/ADR) | (a) 4a: %DIP G1 41.63% (MCF7/ADR); %DIP G2/M 5.55% (MCF7/ADR); %DIP S 52.82% (MCF7/ADR) | (a) 4c: %DIP G1 52.13% (MCF7/ADR); %DIP G2/M 9.91% (MCF7/ADR); %DIP S 37.96% (MCF7/ADR) | (a) 4d: %DIP G1 59.42% (MCF7/ADR); %DIP G2/M 13.75% (MCF7/ADR); %DIP S 26.83% (MCF7/ADR) | (a) 4e: %DIP G1 67.32% (MCF7/ADR); %DIP G2/M 8.6% (MCF7/ADR); %DIP S 24.08% (MCF7/ADR) | (a) 4g: %DIP G1 59.37% (MCF7/ADR); %DIP G2/M 3.67% (MCF7/ADR); %DIP S 36.96% (MCF7/ADR) | (a) 4i: %DIP G1 5.68% (MCF7/ADR); %DIP G2/M 57.61% (MCF7/ADR); %DIP S 36.71% (MCF7/ADR) DOUBTS OF THE COPYIST ABOUT THIS PICTURE: The print in the histogram insets of panel (a) is very small and blurred; 3, 5, 6, 8 and 9 cannot be told apart with certainty in any value, so all values below are best readings. / DOX., %DIP G1 63.03%: 3s may be 8s / DOX., %DIP G2/M 13.09%: 9 may be 8; 3 may be 5 / DOX., %DIP S 23.88%: 8s may be 3 or 6 / 4a, %DIP G1 41.63%: 6 or 8; 3 or 8 / 4a, %DIP G2/M 5.55%: 5s may be 6 or 3 / 4a, %DIP S 52.82%: 8 may be 3 or 6 / 4c, %DIP G1 52.13%: 3 or 8 / 4c, %DIP G2/M 9.91%: 9s may be 8 / 4c, %DIP S 37.96%: 9 or 8; 6 or 8 / 4d, %DIP G1 59.42%: 9 or 8 / 4d, %DIP G2/M 13.75%: 3 or 8; 5 or 6 / 4d, %DIP S 26.83%: 6, 8 and 3 uncertain / 4e, %DIP G1 67.32%: 6 or 8; 3 or 8 / 4e, %DIP G2/M 8.6%: 8 and 6 uncertain; a further digit may be missing / 4e, %DIP S 24.08%: 8 may be 3 or 6 / 4g, %DIP G1 59.37%: 9 or 8; 3 or 8 / 4g, %DIP G2/M 3.67%: 3 or 8; 6 or 8 / 4g, %DIP S 36.96%: 3, 6 and 9 uncertain / 4i, %DIP G1 5.68%: 5, 6 and 8 uncertain; the value seems to be printed against G1 although a leading digit could be hidden / 4i, %DIP G2/M 57.61%: 5 or 6; 6 or 8 / 4i, %DIP S 36.71%: 3 or 8; 6 or 8 / The untreated control (Cont.) also carries printed percentages (%DIP G1 55.38%, %DIP G2/M 15.01%, %DIP S 29.61%) but was left out because it is not a substance.
# human fetal lung (HFL-1) = assay: Cytotoxicity against normal cell line HFL-1; assay type: cell-based; settings: 24 h incubation, mean ± standard error
# Procedure: as §1
# (§3) The tumor cell lines MCF-7, HepG-2, PC-3 MCF-7/ADR, HFL-1 and (WI-38) were obtained from the American Type Culture Collection (ATCC, Rockville, MD, USA). The cells were grown on RPMI-1640 medium supplemented with 10% inactivated fetal calf serum and 50 µg/mL gentamycin. The cells were maintained at 37 ^οC in a humidified atmosphere with 5% CO2 and were subcultured two to three times a week.
# as §2
# [2] = tested on: PC-3 (human prostate adenocarcinoma, metastatic); assay: MTT colorimetric cytotoxicity assay, PC-3; assay type: cell-based; settings: for IC50: Homo sapiens, MTT, 24 h incubation, mean ± standard error; for times more active than Doxorubicin / times more active than Vinblastine: PC-3 cells, ratio of IC50 values
# Procedure: as §1, §3, §2
Structure (SMILES),IC50 [1] [µM],cell cycle arrest phase (MCF-7/ADR cells),"IC50 (human fetal lung (HFL-1); Homo sapiens, HFL1, 24 h) [µM]",IC50 [2] [µM],times more active than Doxorubicin [2] [times],times more active than Vinblastine [2] [times],IC50 (human fetal lung (HFL-1)) [µM]
"N#CC1=C(N)Oc2ccc3ccc(O)cc3c2C1c1ccc(F)cc1F (centres unmarked) [4a, 3-Amino-1-(2,4-Difluorophenyl)-9-Hydroxy-1H-Benzo[f]chromene-2-Carbonitrile]",2.8 ± 0.3,S phase,26.5 ± 0.3,1.1 ± 0.4,1.2,6.8,
"N#CC1=C(N)Oc2ccc3ccc(O)cc3c2C1c1cccc(Cl)c1Cl (centres unmarked) [4c, 3-Amino-1-(2,3-Dichlorophenyl)-9-Hydroxy-1H-Benzo[f]chromene-2-Carbonitrile]",1.7 ± 0.1,S phase,22.1 ± 0.2,2.9 ± 0.7,,,
"N#CC1=C(N)Oc2ccc3ccc(O)cc3c2C1c1ccc(Cl)cc1Cl (centres unmarked) [4d, 3-Amino-1-(2,4-Dichlorophenyl)-9-Hydroxy-1H-Benzo[f]chromene-2-Carbonitrile]",1.8 ± 0.1,G1 phase,20.1 ± 0.4,2 ± 0.7,,,
"N#CC1=C(N)Oc2ccc3ccc(O)cc3c2C1c1cc(Cl)ccc1Cl (centres unmarked) [4e, 3-Amino-1-(2,5-Dichlorophenyl)-9-Hydroxy-1H-Benzo[f]chromene-2-Carbonitrile]",2.7 ± 0.6,G1 phase,24.1 ± 0.3,2.1 ± 0.5,,,
"N#CC1=C(N)Oc2ccc3ccc(O)cc3c2C1c1ccc(Cl)c(Cl)c1 (centres unmarked) [4g, 3-Amino-1-(3,4-Dichlorophenyl)-9-Hydroxy-1H-Benzo[f]chromene-2-Carbonitrile]",2.2 ± 0.2,G1/S phases,27.4 ± 0.1,2.4 ± 0.1,,,
"N#CC1=C(N)Oc2ccc3ccc(O)cc3c2C1c1cc(Br)cc(Br)c1 (centres unmarked) [4i, 3-Amino-1-(3,5-Dibromophenyl)-9-Hydroxy-1H-Benzo[f]chromene-2-Carbonitrile]",3.4 ± 0.6,G1/S phases,19.1 to 30.1,0.8 ± 0.1,1.6,9.4,38.1 ± 0.4
